In patent EP4786485A1, “STRAIGHT CHAIN PEPTIDE COMPOUND AND USE THEREOF” (Shenzhen Zhongge Biological Technology Co., Ltd., priority 2023, dated 2026):
Where a SMILES comes first, the peptide text is derived from it. [ ]: non-standard residue; d: D form. The star is where a group is joined. Biotin = O=C1N[C@H]2[C@H](CS[C@H]2CCCCC(=O)*)N1; Lys(Me3) = C[N+](C)(C)CCCC[C@H](N)C(=O)O; Phe(4-Me) = Cc1ccc(C[C@H](N)C(=O)O)cc1; Palmitoyl = CCCCCCCCCCCCCCCC(=O)*; Hyp = O=C(O)[C@@H]1C[C@@H](O)CN1; βAla = NCCC(=O)O

Legend:
Assay type in all cases: cell-based, Human
hyaluronic acid (HA) = test: ELISA: effect of increasing the content of HA in fibroblasts; design: Effect of increasing the content of HA in the fibroblasts: unit not given here; settings: 1 µM, 24 h; for Effect of increasing the content of HA in the fibroblasts: human-derived fibroblasts, ELISA, blank control BC = 1402.44; for increase in the content of hyaluronic acid (HA): in words, compared to the BC, fibroblasts
Protocol: (§1) B. Effects of increasing the contents of Collagen I (type I collagen), hyaluronic acid (HA), and Elastin (ELN) in fibroblasts
(§2) Test materials: Human-derived fibroblasts (Guangdong BioCell Biotechnology Co., Ltd., Lot No. Fb20081902), DMEM culture medium (Gibco, 23042301, expiration date 230522), PBS (Solarbio, P1010), TGF-β1 (Peprotech, 230504), Collagen I ELISA Kit (Cusabio, B21025824), Elastin ELISA Kit (Abcam, GR3446070-2), HA ELISA Kit (RD, P325066), CO2 incubator (Thermo, 150I), super-clean bench (AIRTECH, SW-CJ-1F), and microplate reader (BioTek, Epoch).
(§3) Test methods: • 1) Inoculation: After cell resuscitation, the cells were inoculated into 6-well plates when the plating rate reached around 60%, and were incubated overnight in an incubator (37°C, 5% CO2). • 2) Formulation of solutions: The linear peptide compounds in the sample groups, and PC2 (Biotinoyl-GHK, [drawing 69] ) and PC3 ( [drawing 70] ) in the positive control group were all at the concentration of 1 µM, and the test substance working solutions were formulated. • 3) Administration: When the cell plating rate in the 6-well plates reached 40% to 60%, administration was performed at 2 mL per well. Three duplicate wells were set for each group. Incubation was performed in an incubator (37°C, 5% CO2) for 24 h. • 4) ELISA assay: The ELISA assays were performed according to the instructions of the respective ELISA kits, with the detection indicators being effect of increasing the content of Collagen I in the fibroblasts, effect of increasing the content of HA in the fibroblasts, and effect of increasing the content of Elastin in the fibroblasts, respectively.

Elastin (ELN) = test: ELISA: effect of increasing the content of Elastin in fibroblasts; design: Effect of increasing the content of Elastin in the fibroblasts: unit not given here; settings: 1 µM; for Effect of increasing the content of Elastin in the fibroblasts: 24 h incubation, ELISA, blank control (BC) 756.52; for increase in the content of Elastin: in words, compared to the BC, 24 h, fibroblasts
Protocol: as §1, §2, §3

[1] = tested on: Collagen I (type I collagen); test: ELISA: effect of increasing the content of Collagen I in fibroblasts; design: Effect of increasing the content of Collagen I in the fibroblasts: unit not given here; settings: 1 µM, 24 h; for Effect of increasing the content of Collagen I in the fibroblasts: human-derived fibroblasts, ELISA, blank control BC = 35.6; for increase in the content of type I collagen (Collagen I): in words, compared to the BC, fibroblasts
Protocol: as §1, §2, §3

SMILES | Effect of increasing the content of HA in the fibroblasts (hyaluronic acid (HA)) | increase in the content of hyaluronic acid (HA) (hyaluronic acid (HA)) | Effect of increasing the content of Elastin in the fibroblasts (Elastin (ELN)) | increase in the content of Elastin (Elastin (ELN)) | Effect of increasing the content of Collagen I in the fibroblasts [1] | increase in the content of type I collagen (Collagen I) [1]
CNC(=O)[C@H](CCCC[N+](C)(C)C)NC(=O)CNC(=O)[C@H](Cc1c[nH]cn1)NC(=O)[C@H](CCCCN)NC(=O)[C@H](Cc1ccc(C)cc1)NC(C)=O [compound 358] (Ac-[Phe(4-Me)]KHG[Lys(Me3)]-NHMe) | 1913.78 | significant increase | 1133.42 | significant increase | 81.27 | significant increase
CNC(=O)[C@H](Cc1ccc(C)cc1)NC(=O)CNC(=O)[C@H](CCCCN)NC(=O)[C@H](Cc1c[nH]cn1)NC(=O)CNC(=O)[C@H](CCCC[N+](C)(C)C)NC(C)=O [compound 349] (Ac-[Lys(Me3)]GHKG[Phe(4-Me)]-NHMe) | 1794.21 | significant increase | 836 | significant increase | 90.16 | significant increase
CNC(=O)[C@H](Cc1ccc(C)cc1)NC(=O)[C@H](C)NC(=O)[C@H](CCCCN)NC(=O)[C@H](Cc1c[nH]cn1)NC(=O)CNC(=O)[C@H](CCCC[N+](C)(C)C)NC(C)=O [compound 337] (Ac-[Lys(Me3)]GHKA[Phe(4-Me)]-NHMe) | 2421.21 | significant increase | 1320.95 | significant increase | 95.66 | significant increase
CCCCCCCCCCCCCCCC(=O)N[C@@H](CCCC[N+](C)(C)C)C(=O)NCC(=O)N[C@@H](Cc1c[nH]cn1)C(=O)N[C@@H](CCCCNC(=O)[C@@H]1C[C@@H](O)CN1)C(=O)N[C@@H](Cc1ccc(C)cc1)C(=O)O [compound 403] (Palmitoyl-[Lys(Me3)]GHK(Hyp)[Phe(4-Me)]-OH) | 2688.75 | significant increase | 928.61 | significant increase | 97.51 | significant increase
CNC(=O)[C@H](CCCCN)NC(=O)[C@H](Cc1c[nH]cn1)NC(=O)CNC(=O)[C@H](C)NC(=O)[C@H](C)NC(=O)[C@H](C)NC(=O)[C@H](CCCCN)NC(=O)[C@H](Cc1c[nH]cn1)NC(=O)CNC(C)=O [compound 23] (Ac-GHKAAAGHK-NHMe) | 2533.64 | significant increase | 1097.64 | significant increase | 46.06 | significant increase
CNC(=O)CNC(=O)[C@H](Cc1c[nH]cn1)NC(=O)[C@H](CCCCN)NC(=O)CCNC(=O)CCNC(C)=O [compound 76] (Ac-[βAla][βAla]KHG-NHMe) | 2607.31 | significant increase | 1061.55 | significant increase | 47.05 | significant increase
CCCCCCCCCCCCCCCC(=O)N[C@@H](CCCC[N+](C)(C)C)C(=O)NCC(=O)N[C@@H](Cc1c[nH]cn1)C(=O)N[C@@H](CCCCNC(=O)[C@@H]1CCCN1)C(=O)N[C@@H](Cc1ccc(C)cc1)C(=O)O [compound 397] (Palmitoyl-[Lys(Me3)]GHK(Pro)[Phe(4-Me)]-OH) | 1832.87 | significant increase | 1115.1 | significant increase | 54.45 | significant increase
NCCCC[C@H](NC(=O)[C@H](Cc1c[nH]cn1)NC(=O)CNC(=O)[C@@H]1CCCN1C(=O)[C@@H]1CCCN1C(=O)[C@@H]1CCCN1C(=O)CCCC[C@@H]1SC[C@@H]2NC(=O)N[C@@H]21)C(N)=O [compound 296] (Biotin-PPPGHK-NH2) | 1686.42 | significant increase | 930.98 | significant increase | 88.1 | significant increase
CCCCCCCCCCCCCCCC(=O)N[C@@H](Cc1ccc(OCC)cc1)C(=O)N[C@@H](C)C(=O)N[C@@H](CCCCN)C(=O)N[C@@H](Cc1c[nH]cn1)C(=O)NCC(=O)N[C@@H](CCCC[N+](C)(C)C)C(=O)O [compound 417] (Palmitoyl-Y(Et)AKHG[Lys(Me3)]-OH) | 1938.51 | significant increase | 861.32 | significant increase | 92.88 | significant increase
